# Reference: ChEMBL document CHEMBL1201862, “PubChem BioAssay data set” (2004)
# Structures can show the parent of a compound that is named as a salt. Activity calls are given as the source filed them.
# Key:
# [1] = inhibitors of intracellular T. cruzi replication, confirmation, NIH3T3 host cells, beta-gal luminescence (AID 2044); format: functional, cell-based;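 further: intracellular parasites grown in NIH/3T3 mouse fibroblasts as host cells; luminescent beta-galactosidase reporter signal from transgenic T. cruzi replicating inside host cells; inhibitors lower the luminescence signal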
# cells [2] = assay: cells
# [3] = cytotoxicity toward NIH3T3 fibroblasts, dose response, counter-screen, cell-based, ATP luminescence, mouse fibroblasts (AID 2010); format: functional;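 further: cells exposed to compound for about 90 hours before reading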
# [4] = molecular target: Sphingosine 1-phosphate receptor 2 (Homo sapiens, UniProt O95136); assay: Dose Response Cell Based Assay for Antagonists of the S1P2 Receptor. [Related pubchem assays: 856, 736 ]; format: functional
# Sequence of Sphingosine 1-phosphate receptor 2 (O95136 whole entry): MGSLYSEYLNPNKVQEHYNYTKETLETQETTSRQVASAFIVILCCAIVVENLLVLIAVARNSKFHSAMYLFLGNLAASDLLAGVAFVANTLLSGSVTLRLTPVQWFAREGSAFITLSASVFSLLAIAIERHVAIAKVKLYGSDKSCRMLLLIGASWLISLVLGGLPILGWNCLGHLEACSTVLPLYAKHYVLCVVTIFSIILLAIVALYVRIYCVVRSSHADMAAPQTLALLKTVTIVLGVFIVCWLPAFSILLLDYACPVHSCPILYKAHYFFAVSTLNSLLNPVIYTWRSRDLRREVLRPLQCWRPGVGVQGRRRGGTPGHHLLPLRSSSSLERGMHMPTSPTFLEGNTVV
# [5] = molecular target: T1, RNA-editing ligase 1, mitochondrial (Trypanosoma brucei brucei, UniProt P86926); assay: TbREL1 ligase inhibitors, dose response, biochemical, fluorescence, Trypanosoma brucei (AID 1117295); format: functional
# T1 sequence (P86926 whole entry): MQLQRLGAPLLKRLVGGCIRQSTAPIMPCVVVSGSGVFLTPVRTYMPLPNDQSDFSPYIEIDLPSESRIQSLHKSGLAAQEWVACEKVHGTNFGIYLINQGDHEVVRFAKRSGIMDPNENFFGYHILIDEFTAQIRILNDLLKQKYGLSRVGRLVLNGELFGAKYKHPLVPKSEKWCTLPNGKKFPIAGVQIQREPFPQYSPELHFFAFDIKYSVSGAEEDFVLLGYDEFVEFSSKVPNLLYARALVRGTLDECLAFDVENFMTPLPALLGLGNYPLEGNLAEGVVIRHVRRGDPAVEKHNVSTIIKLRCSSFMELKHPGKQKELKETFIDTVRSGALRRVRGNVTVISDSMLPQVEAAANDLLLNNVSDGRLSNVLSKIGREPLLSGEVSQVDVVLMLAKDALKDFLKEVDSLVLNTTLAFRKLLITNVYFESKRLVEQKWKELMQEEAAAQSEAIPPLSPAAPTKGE
# [6] = THP-1 cell cytotoxicity, dose response, cytotoxicity control for Vif-APOBEC3G degradation inhibitor project, THP-1 cells (AID 1117359); format: functional; settings: Human immunodeficiency virus 1, THP-1
# [7] = Luminescence Cell-Based Dose Retest to Confirm Inhibitors of Cancer Stem Cells. [Related pubchem assays (depositor defined):AID2717, AID2721]; format: functional; settings: Homo sapiens
# [8] = molecular target: T2, Mannose-6-phosphate isomerase (Homo sapiens, UniProt P34949); assay: inhibitors of human PMI, primary screen, biochemical, fluorescence intensity, coupled assay (AID 1209)
# T2 sequence (P34949 whole entry): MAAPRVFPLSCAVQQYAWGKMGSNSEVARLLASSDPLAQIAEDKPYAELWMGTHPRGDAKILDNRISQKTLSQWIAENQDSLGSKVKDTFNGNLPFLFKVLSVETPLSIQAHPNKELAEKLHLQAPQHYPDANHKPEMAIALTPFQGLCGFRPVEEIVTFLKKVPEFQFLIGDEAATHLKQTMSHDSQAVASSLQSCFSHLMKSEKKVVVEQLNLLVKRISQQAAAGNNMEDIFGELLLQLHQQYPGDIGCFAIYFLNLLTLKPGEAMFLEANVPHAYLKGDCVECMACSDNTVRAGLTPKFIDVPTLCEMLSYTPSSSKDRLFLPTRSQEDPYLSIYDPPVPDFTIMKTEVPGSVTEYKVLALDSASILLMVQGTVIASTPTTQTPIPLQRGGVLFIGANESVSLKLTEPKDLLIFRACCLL
# Large T antigen = Large T antigen (Simian virus 40, UniProt P03070); format: functional, Betapolyomavirus macacae;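 further: Confirmatory-stage PubChem screen for compounds that inhibit SV40 T antigen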
# Sequence of Large T antigen (P03070 whole entry): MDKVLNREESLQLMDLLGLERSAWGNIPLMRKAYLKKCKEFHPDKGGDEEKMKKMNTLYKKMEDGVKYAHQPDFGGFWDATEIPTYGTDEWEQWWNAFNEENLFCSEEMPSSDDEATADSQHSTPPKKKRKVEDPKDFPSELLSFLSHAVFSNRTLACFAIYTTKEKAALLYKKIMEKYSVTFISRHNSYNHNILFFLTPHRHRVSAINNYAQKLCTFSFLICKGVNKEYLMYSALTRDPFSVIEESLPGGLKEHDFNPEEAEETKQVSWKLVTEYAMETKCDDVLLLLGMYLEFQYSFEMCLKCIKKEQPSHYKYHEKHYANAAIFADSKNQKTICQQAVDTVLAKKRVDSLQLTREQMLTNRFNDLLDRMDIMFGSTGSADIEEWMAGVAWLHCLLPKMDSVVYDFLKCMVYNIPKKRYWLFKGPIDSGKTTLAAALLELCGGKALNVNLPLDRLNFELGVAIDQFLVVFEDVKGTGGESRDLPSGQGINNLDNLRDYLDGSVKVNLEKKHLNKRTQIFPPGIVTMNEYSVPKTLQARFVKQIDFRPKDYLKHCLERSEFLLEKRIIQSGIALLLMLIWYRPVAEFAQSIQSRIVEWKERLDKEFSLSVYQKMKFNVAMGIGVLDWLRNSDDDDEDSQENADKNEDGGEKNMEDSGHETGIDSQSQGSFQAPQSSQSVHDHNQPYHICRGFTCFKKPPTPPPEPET
# cells [9] = assay: cells; remark: listed apart in the source
# BJ [10] = assay: cells; format: functional, cell-based; settings: Homo sapiens
# [11] = microbe, parasite or virus in culture; format: functional; settings: Mycobacterium tuberculosis
# [12] = growth suppression of PTEN-null colon cells, dose response, cell-based, HCT116 PTEN knockout (AID 1047); format: functional;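 further: HCT116 colon tumor cells with PTEN knocked out; cells exposed to compound for 60 hours before readout; potency for loss of cell viability measured by luminescence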
# [13] = molecular target: T3, Calpain-2 catalytic subunit (Sus scrofa, UniProt P43367); assay: pig calpain II inhibitor potency, dose response, biochemical, fluorogenic peptide substrate (AID 1420); format: functional
# T3 sequence (P43367 whole entry): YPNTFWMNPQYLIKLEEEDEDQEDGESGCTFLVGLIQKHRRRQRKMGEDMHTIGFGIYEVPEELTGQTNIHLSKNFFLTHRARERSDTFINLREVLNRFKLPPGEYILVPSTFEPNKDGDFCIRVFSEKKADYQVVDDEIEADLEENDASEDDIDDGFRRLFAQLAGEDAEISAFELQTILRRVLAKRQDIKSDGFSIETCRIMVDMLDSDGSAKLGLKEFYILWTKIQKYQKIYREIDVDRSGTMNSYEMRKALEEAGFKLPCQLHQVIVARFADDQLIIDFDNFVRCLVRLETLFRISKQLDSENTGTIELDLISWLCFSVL
# [14] = cytotoxicity toward DRD oncogenic fibroblasts, dose response, cell-based, non-viral oncogenic, luminescence (AID 1934); format: functional; settings: Homo sapiens
# [15] = HepG2 cell cytotoxicity, dose response, cytotoxicity control for Shn3 inhibitor project, CellTiter-Glo, cherry-picked (AID 624134); format: functional, cell-based
# Jurkat = assay: antigen receptor-induced NF-kB inhibitors, dose response, Jurkat, luciferase reporter, luminescence, B- and T-cell (AID 489004); format: functional, cell-based; settings: Homo sapiens;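 further: NF-kB luciferase reporter Jurkat cells stimulated with PMA plus ionomycin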
# [16] = Shn3 3'UTR reporter inhibitors, dose response, cell-based, Clone20 osteoblasts, firefly luciferase, cherry-picked (AID 624132); format: functional;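 further: firefly luciferase luminescence from reporter carrying the Shn3 3'UTR in osteoblasts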
# [17] = growth suppression of beta-catenin-knockout colon cells, dose response, cell-based, HCT116, human colon tumor (AID 1045); format: functional;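 further: HCT116 colon tumor cells with beta catenin knocked out; cells exposed to compound for 60 hours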
# [18] = cytotoxicity in HEK-293T NF-kB-Luc cells, dose response, cytotoxicity control for B/T-cell NF-kB inhibitor project, cell-based, uHTS hits (AID 489019); format: functional;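 further: IC50 reflects cytotoxicity as loss of cell viability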
# [19] = control 3'UTR Renilla luciferase suppression, dose response, counter-screen for Shn3 inhibitor project, cell-based, Clone20-Shn3RL, cherry-picked (AID 624133); format: functional
# BJ [20] = assay: cytotoxicity toward BJ-TERT fibroblasts, dose response, cell-based, RAS-independent, luminescence (AID 1933); format: functional; settings: Homo sapiens
# INS1 = assay: beta cell apoptosis inhibitors, cytokine rescue, dose response, luminescence, retest (AID 449756); format: functional, cell-based; settings: Rattus norvegicus;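 further: cell death triggered by IL-1 beta plus TNF-alpha plus IFN-gamma mixture; protective hits raise ATP signal compared with cytokine alone wells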
# [21] = molecular target: Voltage-dependent T-type calcium channel subunit alpha-1H (Homo sapiens, UniProt O95180); format: functional;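 further: channel activity triggered by adding a high calcium stimulation buffer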
# Sequence of Voltage-dependent T-type calcium channel subunit alpha-1H (O95180 whole entry): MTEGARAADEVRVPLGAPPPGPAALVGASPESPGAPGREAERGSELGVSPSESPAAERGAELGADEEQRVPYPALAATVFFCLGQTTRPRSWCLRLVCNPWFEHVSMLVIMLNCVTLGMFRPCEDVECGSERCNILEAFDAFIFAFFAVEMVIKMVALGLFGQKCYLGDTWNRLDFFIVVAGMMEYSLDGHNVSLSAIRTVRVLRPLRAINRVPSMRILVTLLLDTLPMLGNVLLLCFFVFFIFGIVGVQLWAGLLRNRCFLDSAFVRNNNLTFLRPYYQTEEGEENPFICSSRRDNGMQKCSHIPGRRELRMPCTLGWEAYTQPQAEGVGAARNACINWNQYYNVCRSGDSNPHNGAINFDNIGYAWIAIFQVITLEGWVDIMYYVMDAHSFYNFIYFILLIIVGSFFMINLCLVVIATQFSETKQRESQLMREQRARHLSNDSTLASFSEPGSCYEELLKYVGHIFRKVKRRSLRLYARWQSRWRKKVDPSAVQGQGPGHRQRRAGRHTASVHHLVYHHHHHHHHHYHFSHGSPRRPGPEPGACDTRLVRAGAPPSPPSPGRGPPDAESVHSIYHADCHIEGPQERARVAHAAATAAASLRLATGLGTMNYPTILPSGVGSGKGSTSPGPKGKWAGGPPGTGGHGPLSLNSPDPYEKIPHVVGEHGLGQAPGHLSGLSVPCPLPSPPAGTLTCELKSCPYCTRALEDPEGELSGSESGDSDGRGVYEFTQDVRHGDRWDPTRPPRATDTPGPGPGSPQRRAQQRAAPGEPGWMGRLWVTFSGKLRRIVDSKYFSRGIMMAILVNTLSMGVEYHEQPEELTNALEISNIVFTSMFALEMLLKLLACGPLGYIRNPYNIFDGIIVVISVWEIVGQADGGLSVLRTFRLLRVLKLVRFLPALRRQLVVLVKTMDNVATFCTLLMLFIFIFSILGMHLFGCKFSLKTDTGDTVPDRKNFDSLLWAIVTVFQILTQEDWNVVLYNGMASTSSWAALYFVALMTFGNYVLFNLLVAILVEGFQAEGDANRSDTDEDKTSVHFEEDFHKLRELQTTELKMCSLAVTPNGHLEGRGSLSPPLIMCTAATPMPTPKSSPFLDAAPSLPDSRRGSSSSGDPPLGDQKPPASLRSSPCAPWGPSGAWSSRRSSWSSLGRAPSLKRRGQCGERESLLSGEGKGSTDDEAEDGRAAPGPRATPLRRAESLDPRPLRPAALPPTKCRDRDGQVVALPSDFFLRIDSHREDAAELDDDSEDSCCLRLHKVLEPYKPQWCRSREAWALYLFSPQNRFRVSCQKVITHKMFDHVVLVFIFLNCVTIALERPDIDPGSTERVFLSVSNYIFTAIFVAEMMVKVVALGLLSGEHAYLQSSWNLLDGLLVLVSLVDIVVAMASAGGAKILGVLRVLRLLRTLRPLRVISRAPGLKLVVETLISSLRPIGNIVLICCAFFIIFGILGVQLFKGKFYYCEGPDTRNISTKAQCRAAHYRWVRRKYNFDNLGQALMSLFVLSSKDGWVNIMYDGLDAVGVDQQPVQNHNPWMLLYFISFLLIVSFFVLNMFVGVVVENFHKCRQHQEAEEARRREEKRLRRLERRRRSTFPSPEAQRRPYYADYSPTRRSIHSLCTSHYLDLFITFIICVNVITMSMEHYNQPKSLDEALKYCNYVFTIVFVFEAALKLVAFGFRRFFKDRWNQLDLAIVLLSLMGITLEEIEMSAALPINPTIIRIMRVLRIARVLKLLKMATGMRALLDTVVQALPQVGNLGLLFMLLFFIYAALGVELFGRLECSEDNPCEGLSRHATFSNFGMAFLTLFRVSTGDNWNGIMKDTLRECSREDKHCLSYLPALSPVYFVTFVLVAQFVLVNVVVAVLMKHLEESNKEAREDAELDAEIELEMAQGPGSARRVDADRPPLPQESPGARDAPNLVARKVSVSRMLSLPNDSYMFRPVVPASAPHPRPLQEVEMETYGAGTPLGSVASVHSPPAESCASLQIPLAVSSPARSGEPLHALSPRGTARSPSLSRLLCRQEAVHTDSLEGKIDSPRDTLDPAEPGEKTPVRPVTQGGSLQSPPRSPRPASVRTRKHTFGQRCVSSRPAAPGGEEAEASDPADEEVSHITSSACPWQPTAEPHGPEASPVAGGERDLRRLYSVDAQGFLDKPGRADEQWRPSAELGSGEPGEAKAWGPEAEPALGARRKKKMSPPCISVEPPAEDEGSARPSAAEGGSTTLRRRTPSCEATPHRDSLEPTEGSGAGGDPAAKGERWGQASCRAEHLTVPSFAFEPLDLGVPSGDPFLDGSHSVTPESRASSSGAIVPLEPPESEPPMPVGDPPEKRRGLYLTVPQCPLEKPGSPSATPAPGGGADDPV
# BJ [22] = assay: cytotoxicity toward BJ-TERT-LT-ST fibroblasts, dose response, cell-based, RAS-independent, luminescence (AID 1935); format: functional; settings: Homo sapiens;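 further: BJ fibroblasts immortalized with TERT plus LT and ST oncogenes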
# [23] = RKO cell viability reduction, dose response, CellTiter-Glo luminescence (AID 1117322); format: functional
# [24] = CellTiter-Glo luminescent dose response of DLD-1 viability loss (AID 1117352); format: functional
# [25] = cytotoxicity toward Colo320 cells – cell-based, CellTiter-Glo luminescence, IC50, dose response (AID 1117334); format: functional; settings: COLO 320
# [26] = Concentration-dependent survival of SW480 colon cancer line, luminescence detection with CellTiter-Glo, half-maximal inhibitory concentration (AID 1117338); format: functional
# [27] = cytotoxicity toward HT-29 cells – cell-based, CellTiter-Glo luminescence, IC50, dose response (AID 1117330); format: functional
# [28] = cytotoxicity toward HCT116 cells – cell-based, CellTiter-Glo luminescence, IC50, dose response (AID 1117332); format: functional; settings: HCT-116
compound,measurement,setting,value
COc1cc(CN(C)CCc2ccccc2)ccc1OCc1ccccc1,EC50,[1],< 0.1 µM (active)
same,EC50,cells [2],0.006 µM (active)
same,EC50,[3],19.1 µM (active)
Cc1n[nH]c(C)c1N1C(=O)c2cccc3c(Br)ccc(c23)C1=O,IC50,[4],> 75.5 µM (not active)
CC(C)Nc1nc(NCCOc2ccccc2Cl)c2sc(-c3ccccc3)cc2n1,IC50,[5],> 96.6 µM (inactive)
Cc1ccc(/C=N/c2ccccc2C(N)=O)s1,CC50,[6],2.54 µM (active)
same,AC50,[7],2.44 µM (active)
COc1ccccc1N1CCN(/N=C/c2ccc(O)c(O)c2)CC1,IC50,[8],> 50 µM (not active)
same,IC50,Large T antigen,15 µM (active)
C/C(N)=C(/C#N)C(=O)CSc1cc(C)c2cc(C)cc(C)c2n1,IC50,cells [9],12 µM (active)
same,EC50,[1],4.13 µM (active)
same,EC50,[3],> 60 µM (not active)
COC(=O)C1=C(C)N(Cc2ccccc2C(F)(F)F)C(NCc2ccccc2)=NC1c1cccc(F)c1 (stereo not given),IC50,[5],> 96.6 µM (inactive)
N#CC(c1cccc(Cl)c1)c1ccc2c(C(F)(F)F)cc(C(F)(F)F)nc2n1 (stereo not given),EC50,BJ [10],3.68 µM (inconclusive)
same,CC50,[11],< 0.16 µM (active)
same,EC50,[12],0.235 µM (active)
same,IC50,[13],6.77 µM (not active)
same,EC50,[14],3.04 µM (active)
same,AC50,[15],0.805 µM (active)
same,IC50,Jurkat,34.5 µM (inactive)
same,AC50,[16],0.689 µM (active)
same,EC50,[17],0.267 µM (active)
same,IC50,[18],> 80 µM (inactive)
same,IC50,[4],0.922 µM (active)
same,AC50,[19],0.54 µM (active)
same,EC50,BJ [20],2.77 µM (active)
same,AC50,INS1,0.881 µM (active)
same,EC50,[21],3.85 µM (active)
same,EC50,BJ [22],6.56 µM (active)
CC(C)(C)NCC(O)c1cc(O)cc(O)c1 (stereo not given) [TERBUTALINE SULFATE],IC50,[23],> 20 µM (inactive)
same,IC50,[24],> 20 µM (inactive)
same,IC50,[25],> 20 µM (inactive)
same,IC50,[26],> 20 µM (inactive)
same,IC50,[27],> 20 µM (inactive)
same,IC50,[28],> 20 µM (inactive)
